From patent EP4349409A1, “COMPOUNDS FOR THE MANAGEMENT OF CELL STEMNESS AND INVASION IN CANCER AND RELATED DISEASES” (Instituto Biomar S.A., priority 2022, dated 2024)

Test system: U373
Test: MTT-based cytotoxicity assay, U373
Assay type: cell-based
Conditions: Homo sapiens, U373 MG, 72 h
Protocol: A dose-response analysis of BMT9 (concentrations ranging from 4.5 µM-18 µM), BCNU (from 150 µM-500 µM) and TMZ (350 µM-700 µM) was performed in two conventional glioblastoma cell lines (T98G, U373) and the GNS cell line G144 by MTT-based cytotoxicity assays (Figure 5A-D). Cells were seeded on p96-well plates and treated with the different compounds for 72 h. Then, the MTT reagent (3-(4,5-Dimethyl-2-thiazolyl)-2,5-diphenyl-2H-tetrazolium bromide diluted in PBS to a concentration of 1mg/ml), was added to each well to a final concentration of 0.33mg/ml, and incubated for 3 h at 37°C. After that, the media was removed, and formazan crystals were solubilized with DMSO. Absorbance was measured at 560 nm using a "Synergy HT" plate reader (Biotek). In the graphs, the Y axis represents the percentage of cell viability relative to non-treated cells. The IC50, when reached are marked by a rectangle. DMSO treatment had no effect on cell viability.

`C=C1C2CCC(C)(C3COc4c(C)c(OC)c5c(c4C3O)C(O)OC5=O)C1CCC2(C)C` (stereo not shown) [BMT9] was tested, and the IC50 was 18 µM.
